# Test results reported in patent US8481458B2, “Adjuvant for pesticides” (priority 2002, dated 2013).
# Experiments:
# potato vines = test: Dessication of potato vines before harvest (speed); format: in vivo; settings: for Defol %: at the time printed in column Hour; for Hour: time at which the printed Defol % was seen
# From the text: This example was used to how various permeabilizers are able to improve the speed in which various active components are able to obtain their desired effects on treated plants. In this example, a combination of oxalic acid and citric acid (Adjuvant 1) was used in combination with the harvest aid chemicals paraquat and diquat for the dessication of potato vines before harvest and compared to the commercial rates paraquat and diquat.
# Xanthomonas campestris = test: Bactericide on bacterial leaf spot on tomatoes; format: in vivo; settings: tomato plants innoculated with the bacteria; ratings after two weeks
# From the text: The tomato plants were innoculated with the bacteria. […] The ratings were made after two weeks on the percent leaves infected.
# [1] = system: fireblight on Southern Crepe Myrtle; test: Streptomycin for control of fireblight on Southern Crepe Myrtle; settings: infected plants sprayed until wet; ratings after two days
# Eastern Tent caterpillar = test: Ingestion insecticide sprayed on the tent; format: in vivo; settings: evaluated 1 day after application
# Experimental: This test involved the evaluation of an ingestion insecticide on the Eastern Tent caterpillar. The insecticide was mixed in a tank at the shown rate and sprayed on the tent, and the evaluation was performed after 1 day following application.
# cotton = test: Cotton defoliation with oxalic acid, EDTA, citric acid as adjuvants, field plots; format: in vivo; settings: Day 7 after spraying, test size field plots
# Experimental: Oxalic acid (Adj II), EDTA (Adj III), and citric acid (Adj IV) were used as an adjuvants with harvest aid chemicals and compared to the commercial products ethephon and ethephon plus cyclanilide. The comparison was for defoliation only at 7 days after spraying on cotton. The tests were conducted on test size field plots, at dosages of 1 pound or 0.5 pounds per acre (#/ac).
# Alternaria solani = test: Fungicide for control of Early Blight on tomatoes; format: in vivo; settings: tomato plants innoculated with the fungi; ratings after one week
# From the text: The tomato plants were innoculated with the fungi. The ratings were made after one week on the percent leaves infected with Alternaria and also the number with bad damage—necrosis.
compound,measurement,setting,value
"C[n+]1ccc(-c2cc[n+](C)cc2)cc1 [paraquat 2 qt/ac, paraquat]",Defol %,potato vines,98%
same,Hour,potato vines,36 h
"[Cu+2].[OH-].[OH-] [Copper 2#/acre, copper hydroxide]",Percent Leaves Infected,Xanthomonas campestris,63%
"[H]/N=C(/N)N[C@H]1[C@H](O)[C@@H](O)[C@H](O[C@@H]2O[C@@H](C)[C@](O)(C=O)[C@H]2O[C@@H]2O[C@@H](CO)[C@H](O)[C@@H](O)[C@@H]2NC)[C@@H](N/C(N)=N\[H])[C@@H]1O [Streptomycin, streptomycin]",Level Required for Control,[1],60 ppm
"CS/C(C)=N\OC(=O)N(C)SN(C)C(=O)O/N=C(\C)SC [Thiodicarb 0.1%, Thiodicarb]",Insecticide Efficacy,Eastern Tent caterpillar,32%
"O=P(O)(O)CCCl [eth 1#/ac, ethephon]",Defol %,cotton,72%
"c1cc[n+]2c(c1)-c1cccc[n+]1CC2 [diquat 2 qt/ac, diquat]",Defol %,potato vines,96%
same,Hour,potato vines,24 h
"N#Cc1c(Cl)c(Cl)c(Cl)c(C#N)c1Cl [Chlorothalonil 2.5 pt/ac, chlorothalonil]",Infected Leaflets,Alternaria solani,60%
same,Infected Leaves,Alternaria solani,42%
same,Leaflets with >50% Necrosis,Alternaria solani,42%
